Measured values as given in US20240261249A1, “NOVEL SQUARAMIDE DERIVATIVE AND USE THEREOF” (PUSAN NATIONAL UNIVERSITY INDUSTRY-UNIVERSITY COOPERATION …, priority 2021, published 2024).

Test system: Phospho-eIF2α (Ser51)
Test: Phospho-eIF2α (Ser51) Sandwich ELISA in K562 cells
Format: cell-based
Details: serum-free RPMI, 10 μM compound; for activity at 10 µM: Homo sapiens, K562, 6 h, control = 1, read-out: eIF2α phosphorylation, absorbance standardized to control (DMSO-treated) set to 1, at 10 μM
Experimental: Pathscan Phospho-eIF2α (Ser51) Sandwich ELISA Kit #7286 from Cell signaling was used. The K562 cell line was cultured in serum-free RPMI medium at 37° C. in the presence of 5% CO2. Cells were treated with test compounds at a concentration of 10 μM. Six hours after compound treatment, the cells were lysed with a lysis buffer included in the kit to obtain 50 μg of protein by quantification. Afterwards, ELISA assay was performed according to the manufacturer's protocol to obtain absorbance. The absorbance for each obtained compound was standardized to a value of which the control (DMSO-treated) is set to 1.

Compound: O=c1c(Nc2ccc(C(F)(F)F)cc2)c(N[C@H]2CC[C@H](Oc3ccc([N+](=O)[O-])cc3)CC2)c1=O [Compound 48, 3-(((1,4-trans)-4-(4-Nitrophenoxy)cyclohexyl)amino)-4-((4-(trifluoromethyl)phenyl)amino)cyclobut-3-ene-1,2-dione]
- activity at 10 µM: 91%

Compound: O=c1c(Nc2ccccc2Cl)c(N[C@H]2CC[C@H](Oc3ccc(C(F)(F)F)cc3)CC2)c1=O [Compound 66, 3-((2-Chlorophenyl)amino)-4-(((1,4-trans)-4-(4-(trifluoromethyl)phenoxy)cyclohexyl)amino)cyclobut-3-ene-1,2-dione]
- activity at 10 µM: 159%

Compound: CS(=O)(=O)c1ccc(O[C@H]2CC[C@H](Nc3c(Nc4ccccc4C(F)(F)F)c(=O)c3=O)CC2)cc1 [Compound 73, 3-(((1,4-trans)-4-(4-(Methylsulfonyl)phenoxy)cyclohexyl)amino)-4-((2-(trifluoromethyl)phenyl)amino)cyclobut-3-ene-1,2-dione]
- activity at 10 µM: 84%

Compound: N#Cc1ccc(O[C@H]2CC[C@H](Nc3c(Nc4ccc(C(F)(F)F)cc4)c(=O)c3=O)CC2)cc1 [Compound 47, 4-(((1,4-trans)-4-((3,4-Dioxo-2-((4-(trifluoromethyl)phenyl)amino)cyclobut-1-en-1-yl)amino)cyclohexyl)oxy)benzonitrile]
- activity at 10 µM: 51%

Compound: O=c1c(Nc2ccccc2Cl)c(N[C@H]2CC[C@H](Oc3ccc([N+](=O)[O-])cc3)CC2)c1=O [Compound 68, 3-((2-Chlorophenyl)amino)-4-(((1,4-trans)-4-(4-nitrophenoxy)cyclohexyl)amino)cyclobut-3-ene-1,2-dione]
- activity at 10 µM: 209%

Compound: N#Cc1ccc(O[C@H]2CC[C@H](Nc3c(Nc4cccc(F)c4)c(=O)c3=O)CC2)cc1 [Compound 14, 4-(((1,4-trans)-4-((2-((3-Fluorophenyl)amino)-3,4-dioxocyclobut-1-en-1-yl)amino)cyclohexyl)oxy)benzonitrile]
- activity at 10 µM: 90%

Compound: NS(=O)(=O)c1ccc(O[C@H]2CC[C@H](Nc3c(Nc4cccc(Cl)c4)c(=O)c3=O)CC2)cc1 [Compound 22, 4-(((1,4-trans)-4-((2-((3-Chlorophenyl)amino)-3,4-dioxocyclobut-1-en-1-yl)amino)cyclohexyl)oxy)benzenesulfonamide]
- activity at 10 µM: 219%

Compound: COC(=O)c1ccc(Nc2c(N[C@H]3CC[C@H](Oc4ccc(S(C)(=O)=O)cc4)CC3)c(=O)c2=O)cc1 [Compound 61, Methyl 4-((2-(((1,4-trans)-4-(4-(methylsulfonyl)phenoxy)cyclohexyl)amino)-3,4-dioxocyclobut-1-en-1-yl)amino)benzoate]
- activity at 10 µM: 148%

Compound: CC(C)(C)c1ccccc1Nc1c(N[C@H]2CC[C@H](Oc3ccc(C#N)cc3)CC2)c(=O)c1=O [Compound 75, 4-(((1,4-trans)-4-((2-((2-(tert-Butyl)phenyl)amino)-3,4-dioxocyclobut-1-en-1-yl)amino)cyclohexyl)oxy)benzonitrile]
- activity at 10 µM: 162%

Compound: COc1ccc(Nc2c(N[C@H]3CC[C@H](Oc4ccc([N+](=O)[O-])cc4)CC3)c(=O)c2=O)cc1 [Compound 56, 3-((4-Methoxyphenyl)amino)-4-(((1,4-trans)-4-(4-nitrophenoxy)cyclohexyl)amino)cyclobut-3-ene-1,2-dione]
- activity at 10 µM: 227%

Compound: O=c1c(Nc2cccc(F)c2)c(N[C@H]2CC[C@H](Oc3ccc([N+](=O)[O-])cc3)CC2)c1=O [Compound 15, 3-((3-Fluorophenyl)amino)-4-(((1,4-trans)-4-(4-nitrophenoxy)cyclohexyl)amino)cyclobut-3-ene-1,2-dione]
- activity at 10 µM: 81%

Compound: NS(=O)(=O)c1ccc(O[C@H]2CC[C@H](Nc3c(Nc4cccc(F)c4)c(=O)c3=O)CC2)cc1 [Compound 17, 4-(((1,4-trans)-4-((2-((3-Fluorophenyl)amino)-3,4-dioxocyclobut-1-en-1-yl)amino)cyclohexyl)oxy)benzenesulfonamide]
- activity at 10 µM: 86%

Compound: CC(C)(C)c1ccccc1Nc1c(N[C@H]2CC[C@H](Oc3ccc([N+](=O)[O-])cc3)CC2)c(=O)c1=O [Compound 76, 3-((2-(tert-Butyl)phenyl)amino)-4-(((1,4-trans)-4-(4-nitrophenoxy)cyclohexyl)amino)cyclobut-3-ene-1,2-dione]
- activity at 10 µM: 139%

Compound: COc1ccccc1Nc1c(N[C@H]2CC[C@H](Oc3ccc(C#N)cc3)CC2)c(=O)c1=O [Compound 79, 4-(((1,4-trans)-4-((2-((2-Methoxyphenyl)amino)-3,4-dioxocyclobut-1-en-1-yl)amino)cyclohexyl)oxy)benzonitrile]
- activity at 10 µM: 238%

Compound: CS(=O)(=O)c1ccc(O[C@H]2CC[C@H](Nc3c(Nc4cccc(F)c4)c(=O)c3=O)CC2)cc1 [Compound 16, 3-((3-Fluorophenyl)amino)-4-(((1,4-trans)-4-(4-(methylsulfonyl)phenoxy)cyclohexyl)amino)cyclobut-3-ene-1,2-dione]
- activity at 10 µM: 84%

Compound: N#Cc1ccc(O[C@H]2CC[C@H](Nc3c(Nc4ccccc4F)c(=O)c3=O)CC2)cc1 [Compound 63, 4-(((1,4-trans)-4-((2-((2-Fluorophenyl)amino)-3,4-dioxocyclobut-1-en-1-yl)amino)cyclohexyl)oxy)benzonitrile]
- activity at 10 µM: 75%

Compound: O=c1c(Nc2cccc(F)c2)c(N[C@H]2CC[C@H](Oc3ccc(C(F)(F)F)cc3)CC2)c1=O [Compound 13, 3-((3-Fluorophenyl)amino)-4-(((1,4-trans)-4-(4-(trifluoromethyl)phenoxy)cyclohexyl)amino)cyclobut-3-ene]
- activity at 10 µM: 84%

Compound: O=c1c(Nc2ccc(Cl)cc2)c(N[C@H]2CC[C@H](Oc3ccc([N+](=O)[O-])cc3)CC2)c1=O [Compound 44, 3-((4-Chlorophenyl)amino)-4-(((1,4-trans)-4-(4-nitrophenoxy)cyclohexyl)amino)cyclobut-3-ene-1,2-dione]
- activity at 10 µM: 147%

Compound: COc1ccccc1Nc1c(N[C@H]2CC[C@H](Oc3ccc([N+](=O)[O-])cc3)CC2)c(=O)c1=O [Compound 80, 3-((2-Methoxyphenyl)amino)-4-(((1,4-trans)-4-(4-nitrophenoxy)cyclohexyl)amino)cyclobut-3-ene-1,2-dione]
- activity at 10 µM: 133%

Compound: CS(=O)(=O)c1ccc(O[C@H]2CC[C@H](Nc3c(Nc4ccccc4Cl)c(=O)c3=O)CC2)cc1 [Compound 69, 3-((2-Chlorophenyl)amino)-4-(((1,4-trans)-4-(4-(methylsulfonyl)phenoxy)cyclohexyl)amino)cyclobut-3-ene-1,2-dione]
- activity at 10 µM: 101%

Compound: COc1ccc(Nc2c(N[C@H]3CC[C@H](Oc4ccc(C#N)cc4)CC3)c(=O)c2=O)cc1 [Compound 55, 4-(((1,4-trans)-4-((2-((4-Methoxyphenyl)amino)-3,4-dioxocyclobut-1-en-1-yl)amino)cyclohexyl)oxy)benzonitrile]
- activity at 10 µM: 84%

Compound: CS(=O)(=O)c1ccc(O[C@H]2CC[C@H](Nc3c(Nc4cccc(Cl)c4)c(=O)c3=O)CC2)cc1 [Compound 21, 3-((3-Chlorophenyl)amino)-4-(((1,4-trans)-4-(4-(methylsulfonyl)phenoxy)cyclohexyl)amino)cyclobut-3-ene-1,2-dione]
- activity at 10 µM: 77%

Compound: COc1ccc(Nc2c(N[C@H]3CC[C@H](Oc4ccc(S(C)(=O)=O)cc4)CC3)c(=O)c2=O)cc1 [Compound 57, 3-((4-Methoxyphenyl)amino)-4-(((1,4-trans)-4-(4-(methylsulfonyl)phenoxy)cyclohexyl)amino)cyclobut-3-ene-1,2-dione]
- activity at 10 µM: 211%

Compound: CS(=O)(=O)c1ccc(O[C@H]2CC[C@H](Nc3c(Nc4ccccc4F)c(=O)c3=O)CC2)cc1 [Compound 65, 3-((2-Fluorophenyl)amino)-4-(((1,4-trans)-4-(4-(methylsulfonyl)phenoxy)cyclohexyl)amino)cyclobut-3-ene-1,2-dione]
- eIF2α phosphorylation, absorbance standardized to control (DMSO-treated) set to 1, at 10 μM (6 hours, control = 1): 1.07

Compound: COC(=O)c1ccc(Nc2c(N[C@H]3CC[C@H](Oc4ccc(C#N)cc4)CC3)c(=O)c2=O)cc1 [Compound 59, Methyl 4-((2-(((1,4-trans)-4-(4-cyanophenoxy)cyclohexyl)amino)-3,4-dioxocyclobut-1-en-1-yl)amino)benzoate]
- activity at 10 µM: 83%

Compound: O=c1c(Nc2ccc(C(F)(F)F)cc2)c(N[C@H]2CC[C@H](Oc3ccc(C(F)(F)F)cc3)CC2)c1=O [Compound 46, 3-(((1,4-trans)-4-(4-(Trifluoromethyl)phenoxy)cyclohexyl)amino)-4-((4-(trifluoromethyl)phenyl)amino)cyclobut-3-ene-1,2-dione]
- activity at 10 µM: 71%

Compound: COc1cccc(Nc2c(N[C@H]3CC[C@H](Oc4ccc(S(C)(=O)=O)cc4)CC3)c(=O)c2=O)c1 [Compound 36, 3-((3-Methoxyphenyl)amino)-4-(((1,4-trans)-4-(4-(methylsulfonyl)phenoxy)cyclohexyl)amino)cyclobut-3-ene-1,2-dione]
- activity at 10 µM: 60%

Compound: O=c1c(Nc2ccc(Cl)cc2)c(N[C@H]2CC[C@H](Oc3ccc(C(F)(F)F)cc3)CC2)c1=O [Compound 42, 3-((4-Chlorophenyl)amino)-4-(((1,4-trans)-4-(4-(trifluoromethyl)phenoxy)cyclohexyl)amino)cyclobut-3-ene-1,2-dione]
- activity at 10 µM: 93%

Compound: N#Cc1ccc(O[C@H]2CC[C@H](Nc3c(Nc4ccccc4)c(=O)c3=O)CC2)cc1 [Compound 9, 4-(((1,4-trans)-4-((3,4-Dioxo-2-(phenylamino)cyclobut-1-en-1-yl)amino)cyclohexyl)oxy)benzonitrile]
- activity at 10 µM: 88%

Compound: N#Cc1ccc(O[C@H]2CC[C@H](Nc3c(Nc4ccc(F)cc4)c(=O)c3=O)CC2)cc1 [Compound 39, 4-(((1,4-trans)-4-((2-((4-Fluorophenyl)amino)-3,4-dioxocyclobut-1-en-1-yl)amino)cyclohexyl)oxy)benzonitrile]
- activity at 10 µM: 83%
